Results on one molecule are retold here after patent US20210386367A1, “DEVICES AND SYSTEMS FOR GASTROINTESTINAL MICROBIOME DETECTION AND MANIPULATION” (Progenity, Inc., priority 2018, published 2021).

One assay has as its system S. agalactiae ATCC 13813. Kind of assay: Broth microdilution MIC (time-kill study). The following applies: Streptococcus agalactiae, ATCC13813; S. agalacttae ATCC 13813 (so in the source); read-out: MIC. It is filed as cell-based, Streptococcus agalactiae.
For another assay, the system named is S. pneumoniae ATCC 49619. The note with it: cited from earlier work.

As usually defined, the MIC is the lowest concentration found to suppress growth.

Structures are written as SMILES. Converted amounts (≈) assume the structure as drawn.

`CN[C@H](CC(C)C)C(=O)N[C@H]1C(=O)N[C@@H](CC(N)=O)C(=O)N[C@H]2C(=O)N[C@H]3C(=O)N[C@H](C(=O)N[C@H](C(=O)O)c4cc(O)cc(O)c4-c4cc3ccc4O)[C@H](O)c3ccc(c(Cl)c3)Oc3cc2cc(c3O[C@@H]2O[C@H](CO)[C@@H](O)[C@H](O)[C@H]2O[C@H]2C[C@](C)(N)[C@H](O)[C@H](C)O2)Oc2ccc(cc2Cl)[C@H]1O` [vancomycin, Vancomycin]: the MIC in the assay on S. agalactiae ATCC 13813 is 0.5 µg/mL (≈ 0.345 µM). The “CLSI QC range (MIC)” value in the assay on S. pneumoniae ATCC 49619 was “(0.12-0.5) μg/mL”.
